Test results taken from PMC7566811 (Bioorganic & medicinal chemistry, 2010).
Counter-ions that a name gives are not always drawn. Values belong to the molecule of their own block, whether it stands above or below them.

What was measured:
[1] = Oral cassette dosing PK; format: in vivo
[2] = system: T cell tropic (X4) HIV-1; assay: Anti-HIV activity against X4 HIV-1; format: cell-based
[3] = Single dose pharmacokinetics in rats; settings: rat; for AUC: 30 mg/kg po, normalized to a dose of 30 mg/kg
[4] = ref 6a; cited from earlier work
[5] = molecular target: human CCR5 (Homo sapiens, UniProt P51681); assay: Inhibition of calcium mobilization of hCCR5/CHO cells stimulated with MIP-1α; format: cell-based
Sequence of human CCR5 (P51681 whole entry): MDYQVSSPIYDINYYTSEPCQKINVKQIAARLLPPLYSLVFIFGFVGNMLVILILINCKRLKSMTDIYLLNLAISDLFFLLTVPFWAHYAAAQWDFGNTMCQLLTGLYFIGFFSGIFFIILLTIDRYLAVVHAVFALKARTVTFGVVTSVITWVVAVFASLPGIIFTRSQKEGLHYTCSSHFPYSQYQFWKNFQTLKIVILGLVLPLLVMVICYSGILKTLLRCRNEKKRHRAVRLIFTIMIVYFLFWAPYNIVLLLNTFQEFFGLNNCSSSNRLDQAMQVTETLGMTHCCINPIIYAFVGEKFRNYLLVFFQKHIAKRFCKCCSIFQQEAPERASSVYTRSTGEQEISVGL

- AUC after oral cassette dosing [1]: poor
SMILES: CCCCN1C(=O)[C@H](CC2CCCCC2)NC(=O)C12CCN(Cc1ccc(Oc3ccc(NS(C)(=O)=O)cc3)cc1)CC2.Cl [Compound 38, N-[4-(4-{[(3S)-1-Butyl-3-(cyclohexylmethyl)-2,5-dioxo-1,4,9-triazaspiro[5.5]undec-9-yl]methyl}phenoxy)phenyl]methanesulfonamide hydrochloride]

- AUC [3]: 10,532 ng h/mL
SMILES: CCCCN1C(=O)[C@H](CC2CCCCC2)NC(=O)C12CCN(Cc1ccc(Oc3ccc(C(=O)O)cc3)cc1)CC2.Cl [Compound 40, 4-(4-{[(3S)-1-Butyl-3-(cyclohexylmethyl)-2,5-dioxo-1,4,9-triazaspiro[5.5]undec-9-yl]methyl}phenoxy)benzoic acid hydrochloride]
- Activity against T cell tropic (X4) HIV-1 [2]: inactive

- AUC after oral cassette dosing [1]: poor
SMILES: CCCCN1C(=O)[C@H](CC2CCCCC2)NC(=O)C12CCN(Cc1ccc(Oc3ccc(S(N)(=O)=O)cc3)cc1)CC2.Cl [Compound 39, 4-(4-{[(3S )-1-Butyl-3-(cyclohexylmethyl)-2,5-dioxo-1,4,9-triazaspiro[5.5]undec-9-yl]methyl}phenoxy)benzenesulfonamide hydrochloride]

- BA ([3]; 30 mg/kg po vs 3 mg/kg iv): 34.1%
SMILES: CC(C)CC1NC(=O)C2(CCN(Cc3ccc(Oc4ccccc4)cc3)CC2)N(CCC(C)O)C1=O.Cl (stereo not drawn) [Compound 4, 1-(3-Hydroxybutyl)-3-isobutyl-9-(4-phenoxybenzyl)-1,4,9-triazaspiro[5.5]undecane-2,5-dione hydrochloride]

SMILES: CCCCN1C(=O)C(CC2CCCCC2)NC(=O)C12CCN(Cc1ccc(Oc3ccccc3)cc1)CC2.Cl (stereo not drawn) [Compound 1a, 1-Butyl-3-(cyclohexylmethyl)-9-(4-phenoxybenzyl)-1,4,9-triazaspiro[5.5]undecane-2,5-dione hydrochloride]
- Cytotoxicity [4]: minimal

- AUC [3]: 195 ng·h/mL
SMILES: CCCCN1C(=O)[C@H](CC2CCCCC2)NC(=O)C12CCN(Cc1ccc(Oc3ccc(O)cc3)cc1)CC2.Cl [Compound 36, (3S)-1-Butyl-3-(cyclohexylmethyl)-9-[4-(4-hydroxyphenoxy)benzyl]-1,4,9-triazaspiro[5.5]undecane-2,5-dione hydrochloride]

SMILES: CCCCN1C(=O)C(COC)NC(=O)C12CCN(Cc1ccc(Oc3ccccc3)cc1)CC2 (stereo not drawn) [Compound 13, 1-Butyl-3-(methoxymethyl)-9-(4-phenoxybenzyl)-1,4,9-triazaspiro[5.5]undecane-2,5-dione hydrochloride]
- IC50 [5]: 320 nM

SMILES: CCCCN1C(=O)C(CC(C)C)NC(=O)C12CCN(Cc1ccc(Oc3ccccc3)cc1)CC2.Cl (stereo not drawn) [Compound 1b, 1-Butyl-3-isobutyl-9-(4-phenoxybenzyl)-1,4,9-triazaspiro[5.5]undecane-2,5-dione hydrochloride]
- Cytotoxicity [4]: minimal
